Measurements from patent publication US20250325548A1, “TUMOR SUPPRESSOR P73 TRANSCRIPTIONALLY REGULATES C-FLIP TO IMPEDE ITS PRIMING OF EXTRINSIC APOPTOSIS WHILE AN EXAMPLE SWITCHER COMPOUND CB-7587351 DEGRADES C-FLIP PROTEIN” (Brown University, priority 2024, published 2025).
Where a SMILES comes first, the peptide text is derived from it. The star is where a group is joined. Cbz = O=C(OCc1ccccc1)*; CH2F = FC*

Tests used:
[1] = test system: p53 target genes; assay: Real-time RT-PCR of p53 target genes; assay type: cell-based, human; conditions: SW480 cells, 3 hr, normalized to GAPDH
[2] = test system: DNA; assay: DNA-intercalation test; conditions: not shown
[3] = test system: caspase-3/7; assay: Caspase-3/7 activity assay; assay type: cell-based, human; conditions: DLD-1 cancer cells, 36 hours
[4] = test system: p53 reporter, PG13-luc; assay: PG13-luc p53-reporter bioluminescence assay; assay type: cell-based, human
Description: Materials and Methods; High-Throughput Screening: Functional cell-based screening for small molecules that increase p53-transcriptional activity was performed as described in the previous study using noninvasive bioluminescence imaging in human colorectal cancer cells which stably express a p53 reporter, PG13-luc. […] DMSO treatment was used as a negative control in each screened plate. Compounds that increased p53-responsive bioluminescence were selected for secondary screening.

[5] = test system: cancer cells; assay: Cell viability and synergy assay with TRAIL in cancer cells; assay type: cell-based, human; conditions: tested doses
Description: (§1) CellTiter-Glo luminescent Cell viability assay: Cells were seeded on 96-well plates with a density of 3000 cells/well and treated with small molecule compounds as desired for 72 hours. Cell viability was measured by CellTiter-Glo bioluminescence (Promega, catalog no. G7572), and analyzed using an IVIS imager.
(§2) Statistical analysis: Statistical analyses were performed using the student's t-test or Anova with GraphPad Prism software. Statistical significance was determined by p<0.05. Combination indices were calculated using the Chou-Talalay method with CompuSyn software.

[6] = test system: normal cells; assay: Cell viability and synergy assay with TRAIL in normal cells; assay type: cell-based; conditions: tested doses
Description: as §1, §2

[7] = test system: c-FLIP; assay: Real-time PCR of c-FLIP mRNA in cancer cells; assay type: cell-based, human; conditions: cancer cells treated with CB-7587351, Real-time PCR
[8] = test system: cancer cells; assay: Sub-G1 flow cytometric assay in cancer cells; assay type: cell-based, human
Description: Flow Cytometry Assay: Briefly, cells were fixed with 70% ethanol, and stained with Propidium Iodide (PI), then subjected for CytoFLEX to measure DNA content of the PI-stained cells. Cell cycle distribution was analyzed with Flowjo.

[9] = test system: colorectal cancer cells; assay: Colony formation assay; assay type: cell-based, human
[10] = test system: p53-mutant cancer cells; assay: Apoptosis by PARP cleavage and Annexin V after caspase knockdown; assay type: cell-based, human; conditions: CB-7587351 at 10 μM
Description: Annexin V levels were measured using RealTime-Glo™ Annexin V assay kit (Promega). The bioluminescent Annexin V was analyzed using an IVIS imager.
(§3) Western Blot analysis: An equal amount of protein in the cell lysate was loaded in each well and electrophoresed through 4-12% SDS-PAGE then transferred to a PVDF membrane. The primary antibodies indicated in the FIGs. were incubated with the PVDF membrane after transfer in blocking buffer at 4° C. overnight. Antibody binding was detected on PVDF with appropriate IR Dye-secondary antibodies (LI-COR Biosciences, USA) by the ODYSSEY infrared imaging system or with ECL Reagent (Thermo Fisher Scientific, catalog no. 32106) chemiluminescence reaction with appropriate horseradish peroxidase (HRP)-conjugated secondary antibodies (Thermo Fisher Scientific, catalog no. no. 31460 for Goad anti-rabbit IgG and catalog no. 31430 for Goat anti-mouse IgG) by the Syngene imaging system.
Knockdown of gene expression by siRNA: Cells were transfected with siRNA using lipofectamine RNAiMAX (Life Technologies, catalog no. 13778075) as described in the protocol from the manufacturer.

[11] = test system: PARP; assay: Western blot of cleaved PARP with TRAIL combination; assay type: cell-based, human; conditions: cancer cells
Description: as §3

[12] = test system: c-FLIP; assay: Western blot of c-FLIP protein levels in cancer cells; assay type: cell-based, human
Description: as §3

[13] = test system: p53 targets; assay: Western blot of endogenous p53 targets; assay type: cell-based, human
Description: as §3

[14] = test system: γ-H2AX; assay: γ-H2AX phosphorylation (DNA damage) in SW480 cells; assay type: cell-based, human
[15] = test system: panel of cancer cell lines; assay: CellTiter-Glo cell viability, panel of cancer cell lines versus MRC-5; assay type: cell-based, human; conditions: cancer cells compared with normal fibroblast MRC-5 cells, 48 hr
Description: […] Cell viability was measured by CellTiter-Glo bioluminescence (Promega, catalog no. G7572), and analyzed using an IVIS imager.

[16] = test system: caspase-3; assay: Western blot of cleaved caspase-3; assay type: cell-based, human; conditions: cancer cells, early time points
Description: as §3

[17] = target: T1, p73 (Homo sapiens, UniProt O15350); conditions: via releasing it from the inhibitory complex of mutant p53; cited from earlier work
T1 sequence (O15350 1-636): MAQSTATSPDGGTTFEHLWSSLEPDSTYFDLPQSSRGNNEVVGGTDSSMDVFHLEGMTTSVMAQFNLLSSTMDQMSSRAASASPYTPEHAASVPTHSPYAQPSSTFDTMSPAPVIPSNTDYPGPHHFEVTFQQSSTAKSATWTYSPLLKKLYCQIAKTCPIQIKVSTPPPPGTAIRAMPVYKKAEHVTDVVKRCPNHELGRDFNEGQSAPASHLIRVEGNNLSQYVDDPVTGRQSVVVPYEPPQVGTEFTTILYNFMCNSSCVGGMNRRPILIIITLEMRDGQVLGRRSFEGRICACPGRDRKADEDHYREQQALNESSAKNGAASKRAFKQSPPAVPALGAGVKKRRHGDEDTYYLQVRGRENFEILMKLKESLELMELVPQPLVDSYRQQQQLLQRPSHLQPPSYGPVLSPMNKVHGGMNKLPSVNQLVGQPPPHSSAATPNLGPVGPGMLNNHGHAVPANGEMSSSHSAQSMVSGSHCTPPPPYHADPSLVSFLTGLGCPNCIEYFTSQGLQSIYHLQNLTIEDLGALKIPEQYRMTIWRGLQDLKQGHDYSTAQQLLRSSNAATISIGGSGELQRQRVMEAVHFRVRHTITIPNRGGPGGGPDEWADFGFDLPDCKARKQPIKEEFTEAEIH

## CCOc1cccc2c(C)nc(Nc3nc(=O)c4c([nH]3)CCCC4)nc12 [CB-7587351, 2-(8-Ethoxy-4-methyl-2-quinazolinylamino)-5,6,7,8-tetrahydro-4 (1H)-quinazolinone]
[1]
  selected p53 targets at the mRNA level: slight increase
[2]
  DNA-intercalation: no DNA-intercalation was detected
[3]
  caspase-3/7 activity: increase
[4]; SW480, DLD1, HCT116 p53-/- and HCT116, dose dependent
  p53-responsive bioluminescence: strongly induced
[4]; adenovirus infection, then CB-7587351 16 hr
  effect on PG13-luc reporter with overexpression of p73-β or wild-type p53: further enhanced
[4]; p53-KO cancer cells
  PG-13-luciferase reporter after siRNA targeting p73: attenuated
[5]
  synergy with TRAIL on cell viability: synergized with TRAIL
[6]
  synergy with TRAIL on cell viability: not in normal cells
[7]
  c-FLIP expression at the mRNA level: no significant changes
[8]; Ad-p73 infection, 48 hr (sub-G1), 24 hours (Annexin)
  sub-G1 content and Annexin V levels with overexpression of p73: enhanced the anti-tumor effect
[8]; DLD-1 cells, 72 hr (sub-G1), 48 h (PARP)
  sub-G1 content and PARP cleavage after knockdown of p73: abrogated the effect
[8]; cancer cells, 48 hr
  sub-G1 content: increase in sub-G1 content
[9]
  colony formation: dramatically reduced
[10]
  apoptosis (PARP cleavage, Annexin V) after knockdown of caspase-8: prevented apoptosis
[11]
  TRAIL-induced PARP cleavage: enhanced TRAIL-induced PARP cleavage
[12]; SW480, siRNA 48 hr then CB-7587351 8 hr
  c-FLIP degradation after knockdown of CHIP or ITCH: could not rescue c-FLIP
[12]; SW480 cells with overexpression of p73, treatment 8 hr
  p73-mediated upregulation of c-FLIP protein: reduced p73-mediated upregulation of c-FLIP protein
[12]; p53-mutant and p53 wild-type cancer cells, Western blot
  c-FLIP protein expression: reduced c-FLIP protein expression
[13]; DLD-1 cells, 8 hr
  p21 and puma expression after knockdown of p73: blocked the activation effect
[13]; p53-mutant and wild colorectal cancer cell lines, 16 hr
  endogenous p53 targets at the protein level: increased
[14]; SW480 cells, increased dose, early time points
  phosphorylation of γ-H2AX: No phosphorylation
[14]; conclusion from γ-H2AX and DNA-intercalation
  genotoxicity: little or no genotoxicity
[15]
  IC50s, cell viability: much lower in cancer cells than those in normal fibroblast MRC-5 cells
[16]
  cleaved caspase-3: increase

## COC(=O)C[C@H](NC(=O)[C@H](C)NC(=O)[C@@H](NC(=O)OCc1ccccc1)C(C)C)C(=O)CF [z-VAD-FMK, reference compound] (Cbz-Val-Ala-Asp(OMe)-CH2F)
[8]; SW480, HT29, HCT116 p53-/- and HCT116
  CB-7587351-induced apoptosis with pan-caspase inhibitor (sub-G1 assay): blocked the effect of CB-7587351 on apoptosis

## CN1CCN(C(=O)/C=C/c2ccc([N+](=O)[O-])o2)CC1 [NSC59984, (E)-1-(4-Methyl-1-piperazinyl)-3-(5-nitro-2-furyl)-2-propen-1-one]
[17]
  activation of p73: activate p73

## O=C(CSC1=NCCS1)c1ccc(O)c(O)c1 [RETRA, 2-(4,5-Dihydro-1,3-thiazol-2-ylthio)-1-(3,4-dihydroxyphenyl)-1-ethanone]
[17]
  activation of p73: activate p73

## CC(C)C[C@@H](C=O)NC(=O)[C@H](CC(C)C)NC(=O)[C@H](CC(C)C)NC(=O)OCc1ccccc1 [MG132, reference compound] (Cbz-Leu-Leu-Leu-aldehyde)
[12]; cancer cells co-treated with MG132 and CB-7587351
  c-FLIP protein under CB-7587351 plus proteasome inhibitor: rescued c-FLIP from the CB-7587351-induced protein degradation
